In patent US20240124510A1, “Cyclic Glycoaminoacid Derivatives” (TFCHEM, priority 2021, published 2024):
Several values for one entry are separate records, joined by “and”; a condition that tells them apart may be missing. Identical values can stand only once.

How the values were obtained:
human preadipocytes [1] = test: Cytotoxicity (LDH release) on preadipocytes in inflammatory condition (AcMC); assay type: cell-based; conditions: for Cytotoxicity at the end of the culture, normalized by cell number, Values: single replicates
Protocol: (§1) Preadipocytes have been isolated from human female hypodermis (body mass index <30 kg/m2 and <45 years old). Preadipocytes have been cultured for 24 h in 100 μl of DMEM-10% Fetal Bovine Serum (FBS) in 96-well plates. Then cells were treated to induce their differentiation in a classical or an inflammatory environment for 13 days.
(§2) To induce the preadipocytes differentiation cells were incubated in a proadipogenic cocktail (PAC) including insulin, glucocorticoid, 3-isobutyl-1-methylxanthine (IBMX), and thiazolinedione in DMEM.
(§3) To induce a fibro-inflammatory environment, cells were treated with an activated human macrophage-conditioned medium (AcMC) prepared in RPMI medium. A treatment with Dexamethasone (DXM) at 100 nM was used as anti-inflammatory response control. At D0: preadipocytes have been treated in the following conditions: • “Undifferentiation”: DMEM+¼ RPMI medium • “Differentiation”: PAC+¼ RPMI medium • “AcMC” i.e. inflammatory condition: PAC+¼ AcMC • “AcMC+DXM”: PAC+[…] AcMC+anti-inflammatory DXM at 100 nM • “AcMc+compounds”: PAC+14 AcMC+compounds to be tested
(§4) All conditions have been performed in triplicate. The medium has been changed every 2 days for 13 days.
At D14: during the last 24 h of culture, the medium has been replaced by DMEM/F12 medium in all conditions, to collect cells' secretions.
Cytotoxicity was assessed by the measurement of the lactate dehydrogenase (LDH) released by damaged cells in the culture medium (using the kit CytoTox-One Non-Radioactive Cytotoxicity Assay, G1780, Promega). Cells were treated with 0.2% of triton at the end of the culture to determine the maximal toxicity response. The LDH measurement was realized on 24 h medium secretions after 13 days of culture.
The results were normalized by cell number, determined by nuclei staining (with DAPI: 4′,6-Diamidino-2-Phenylindole, Dihydrochloride), and were represented in percentage of the lysis positive control. Compounds presenting a level of cytotoxicity below 20% compared to control were considered as non-toxic.
Quantity of LDH measured in medium was normalized by cell number in each culture condition. Data are represented in percentage of proinflammatory control conditions (AcMC condition).

Hyaluronic Acid (HA) = test: Hyaluronic acid secretion in coculture of human aged fibroblasts and mature adipocytes (ELISA); assay type: cell-based; conditions: for secretion of HA, normalized by fibroblasts number, in percentage of the coculture control condition, Values (%): individual replicates
Text: In order to evaluate its effect on fibroblast matrix and its anti-inflammatory properties, the effect of compound 6 has been tested on an adipocytes-aged fibroblasts coculture model, mimicking the interactions between dermis and hypodermis in the skin and allowed to explore in parallel the biological effects of the products on two cellular targets.
• Experimental model: co-culture of human mature adipocytes cultured in 3D and human dermal fibroblasts cultured in 2D (AM3D-FB2D co-culture). This experimental model of AM3D-FB2D co-culture mimicked the interactions between dermis and hypodermis in the skin and allowed to explore in parallel the biological effects of the products on two cellular targets. • Donor characteristics: This study was performed on mature adipocytes and fibroblasts from two different donors (one donor for mature adipocytes and another donor for dermal fibroblasts). • Fibroblasts donor=person, BMI=28 kg/m^2 • Adipocytes donor=person, BMI=21.4 kg/m^2 • Treatment procedure: compound 6 was added to the co-culture medium daily for up to 6 days
Dermal fibroblasts were seeded in DMEM 10% FBS at 10000 cells/well. The day after, the adipocytes capsules of 50 μl were added in suspension above the fibroblasts and the medium was changed and replaced by a specific culture medium for the co-culture AM3D-FB2D. The formation of adipocytes capsules followed an internal standardized protocol. Briefly, the fully mature adipocytes were isolated from the hypodermis after digestion by collagenase. The isolated adipocytes were then washed with a wash buffer and encapsulated in a peptidic hydrogel to form 3D adipocytes capsules of 50 μl in size. Cells were incubated at 37° C. and 5% CO2 overnight for stabilization. Treatments were initiated at DO with a medium change at DO, D2, D3 and D5. The entire culture media of 24 h incubation was collected at D3 and D6, before being centrifugated and stored at −80° C. Each culture condition was done in triplicate.
The biochemical analyses on culture media were performed via ELISA using specific kits according to the manufacturer's recommendations: IL-6 (Duoset DY206, R&D Systems), and Hyaluronic Acid (HA) (Duoset, DY3614-05, R&D Systems and Procollagen I (Duoset, DY6220-05, R&D Systems) The results of HA and Procollagen I were normalized by fibroblasts cell number regarding the fact that these molecules were secreted mainly by fibroblasts. All the biochemical results were represented in percentage of the control condition.
To evaluate the effect of the compound 6 on fibroblast's matrix, the extracellular concentrations of Hyaluronic Acid (HA), that is secreted only by the fibroblasts, were measured at D3 and D6.

human preadipocytes [2] = test: Proliferation of preadipocytes in classical differentiation conditions (DAPI nuclei staining); assay type: cell-based; conditions: 2 mg/ml; for Cells number at the end of the culture, DAPI staining, Mean: differentiated control 10 118 AU
Protocol: as §1, §2, §3, §4
The number of cells was determined for each condition by DAPI nuclei staining (nuclei) and expressed in arbitrary unit.

Collagen I fibers = test: Quantity of Collagen 1 fibers produced by preadipocytes in inflammatory condition (immunofluorescence); assay type: cell-based, human; conditions: for Collagen I fibers quantity, Mean (%) / Collagen I fibers quantity, Values (%): inflammatory condition, normalized by cells number (Dapi); for Collagen I fibers quantity, Values (%): individual values; for Collagen I fibers quantity compared to the AcMC control condition fixed at 100%: preadipocytes
Protocol: as §1, §2, §3
One month after fixation of preadipocytes cultivated in pro-inflammatory environment, cells were incubated with 3% Bovine Serum Albumin (BSA) for 30 min in order to block the non-specific sites, then with primary antibody anti-collagen 1 (Novusbio, NB600-408) over-night. After washes with PBS, cells were incubated for 30 min with 3% BSA and then with the secondary antibodies (Goat anti-rabbit alexa-fluor 488, ThermoFisher, A11008) and DAPI (for nuclei staining) for 1 h. After several washes, the acquisition and the quantification were performed with a fluorescent video-microscope. Briefly, the quantification was based on the detection and quantification of cell nuclei stained with DAPI, and the detection of collagen 1 staining. Collagen 1 fibers were detected and measured for their length, thickness and intensity. A Collagen 1 fibers quantity was calculated (Quantity=length*thickness*fluorescence intensity) and normalized by cells number (DAPI staining).
Collagen I fibers (fibrillar collagen I) quantity was quantified and the data were normalized by cell number (DAPI staining, quantification of nuclei number). Data are represented in percentage of proinflammatory control conditions (AcMC condition).

For `N[C@H]1CCCN(CC(F)(F)[C@]2(O)O[C@H](CO)[C@H](O)[C@H](O)[C@H]2O)C1=O` [Compound 6], the “Cytotoxicity at the end of the culture, normalized by cell number, Mean” value (human preadipocytes [1]; AcMC + 1 mg/ml) was 81.7 % of AcMC condition, the “Cytotoxicity at the end of the culture, normalized by cell number, Values” (human preadipocytes [1]; AcMC + 1 mg/ml) was 53.1 % of AcMC condition and 81.8 % of AcMC condition and 110.4 % of AcMC condition and the “Cytotoxicity at the end of the culture, normalized by cell number, Mean” value (human preadipocytes [1]; AcMC + 2 mg/ml) was 53.3 % of AcMC condition. For the same molecule, the “Cytotoxicity at the end of the culture, normalized by cell number, Values” (human preadipocytes [1]; AcMC + 2 mg/ml) was 50.5 % of AcMC condition and 50.6 % of AcMC condition and 58.9 % of AcMC condition, the “HA secretion, normalized by fibroblasts number, % of the control” value (“HA secretion, normalized … % of the control” below) (Hyaluronic Acid (HA); 1 mg/ml, 3 days of treatment) was 140% and the “HA secretion, normalized … % of the control” value (Hyaluronic Acid (HA); 1 mg/ml, 6 days of treatment) was 189%. The “HA secretion, normalized … % of the control” value (Hyaluronic Acid (HA); 2 mg/ml, 6 days of treatment) was 225%, the “HA secretion, normalized … % of the control” value (Hyaluronic Acid (HA); 3 mg/ml, 6 days of treatment) was 164% and the “secretion of HA, normalized by fibroblasts number, in percentage of the coculture control condition, Mean (%)” value (Hyaluronic Acid (HA); D3, 1 mg/ml) was 140%. The “secretion of HA, normalized by fibroblasts number, in percentage of the coculture control condition, Values (%)” value (Hyaluronic Acid (HA); D3, 1 mg/ml) was 127% and 123% and 169%, the “secretion of HA, normalized by fibroblasts number, in percentage of the coculture control condition, Mean (%)” value (Hyaluronic Acid (HA); D3, 2 mg/ml) was 90% and the “secretion of HA, normalized by fibroblasts number, in percentage of the coculture control condition, Values (%)” value (Hyaluronic Acid (HA); D3, 2 mg/ml) was 96% and 93% and 80%. The “secretion of HA, normalized by fibroblasts number, in percentage of the coculture control condition, Mean (%)” value (Hyaluronic Acid (HA); D3, 3 mg/ml) was 85%, the “secretion of HA, normalized by fibroblasts number, in percentage of the coculture control condition, Values (%)” value (Hyaluronic Acid (HA); D3, 3 mg/ml) was 83% and 75% and 98% and the “secretion of HA, normalized by fibroblasts number, in percentage of the coculture control condition, Mean (%)” value (Hyaluronic Acid (HA); D6, 1 mg/ml) was 189%. The “secretion of HA, normalized by fibroblasts number, in percentage of the coculture control condition, Values (%)” value (Hyaluronic Acid (HA); D6, 1 mg/ml) was 172% and 157% and 237%, the “secretion of HA, normalized by fibroblasts number, in percentage of the coculture control condition, Mean (%)” value (Hyaluronic Acid (HA); D6, 2 mg/ml) was 225% and the “secretion of HA, normalized by fibroblasts number, in percentage of the coculture control condition, Values (%)” value (Hyaluronic Acid (HA); D6, 2 mg/ml) was 240% and 233% and 203%. The “secretion of HA, normalized by fibroblasts number, in percentage of the coculture control condition, Mean (%)” value (Hyaluronic Acid (HA); D6, 3 mg/ml) was 164%, the “secretion of HA, normalized by fibroblasts number, in percentage of the coculture control condition, Values (%)” value (Hyaluronic Acid (HA); D6, 3 mg/ml) was 121% and 213% and 159% and the “Cells number at the end of the culture, DAPI staining, Mean” value (human preadipocytes [2]) was 13197 AU. For the same molecule, the “Cells number at the end of the culture, DAPI staining, Mean” value (human preadipocytes [2]; listed as compound 6) was 13 197 AU, the “Cells number at the end of the culture (DAPI staining), Values” (human preadipocytes [2]; single replicates) was 13454 AU and 12839 AU and 13298 AU and the “Collagen I fibers quantity, Mean (%)” value (Collagen I fibers; 1 mg/ml) was 154 % of AcMC condition. For the same molecule, the “Collagen I fibers quantity, Values (%)” value (Collagen I fibers; 1 mg/ml) was 136.7 % of AcMC condition and 160.5 % of AcMC condition and 165.3 % of AcMC condition, the “Collagen I fibers quantity, Mean (%)” value (Collagen I fibers; 2 mg/ml) was 213 % of AcMC condition and the “Collagen I fibers quantity, Values (%)” value (Collagen I fibers; 2 mg/ml) was 193.5 % of AcMC condition and 230.7 % of AcMC condition and 213.7 % of AcMC condition. For the same molecule, the “Collagen I fibers quantity compared to the AcMC control condition fixed at 100%” value (Collagen I fibers; 1 mg/ml) was 154% and the “Collagen I fibers quantity compared to the AcMC control condition fixed at 100%” value (Collagen I fibers; 2 mg/ml) was 213%.
